Drawing on patent US6239122A, “Method of treatment of nausea, vomiting, and other disorders using estrogens” (priority 2000, dated 2001), this text covers IC50 for 2 molecules.

The target of experiment [1] is T1, 5-HT3 receptor (Mus musculus, UniProt P23979).
T1 construct: an immortal cell line that expresses 5-HT3 receptors at a high density; endogenous in cells; host or cells: NCB-20 cells (mouse neuroblastoma × Chinese hamster brain hybrid)
In words: Whole-cell patch clamp, co-application of estrogen with 5-HT (0.5 μM); open conformation, high affinity site. Type of experiment: cell-based, mouse neuroblastoma×Chinese hamster brain cell line (NCB-20).
Method: I recorded membrane currents carried by 5-HT3 receptors under voltage-clamp from single cells using the whole-cell configuration of the patch clamp technique (Hamill, O. P., Marty, A., Neher, E., Sakmann, B. & Sakmann, F. J., 1981, Pfluegers Arch. 391:85-100). Recordings were performed at a holding potential of -60 mV. Ligands were applied to the cells using a gravity-feed rapid perfusion system.
When the agonist is bound to the receptor and the receptor is conducting current, the receptor is in an open conformation. […] Concentration-effect data from 21 cells were fitted with the Hill (logistic) equation.

Experiment [2] deals with T1, 5-HT3 receptor. In words: Whole-cell patch clamp, estrogen applied before 5-HT (10 μM); closed conformation, low affinity site. Format: cell-based, mouse neuroblastoma×Chinese hamster brain cell line (NCB-20). Background: Patch clamp records ionic current or voltage across a cell membrane.
Method: I used NCB-20 cells (mouse neuroblastoma×Chinese hamster brain cell line), an immortal cell line that expresses 5-HT3 receptors at a high density. Cells were grown in Dulbecco's modified Eagles medium containing 10% fetal bovine serum, 100 U/ml penicillin, 100 μg/ml streptomycin and 2 mM glutamine. Cells were incubated in 35 mm plates at 37 degrees C in a humidified 7% carbon dioxide atmosphere. […] I recorded membrane currents carried by 5-HT3 receptors under voltage-clamp from single cells using the whole-cell configuration of the patch clamp technique (Hamill, O. P., Marty, A., Neher, E., Sakmann, B. & Sakmann, F. J., 1981, Pfluegers Arch. 391:85-100). Recordings were performed at a holding potential of -60 mV. Ligands were applied to the cells using a gravity-feed rapid perfusion system.
This is also called the closed conformation of the receptor.

T1 sequence (P23979 24-489): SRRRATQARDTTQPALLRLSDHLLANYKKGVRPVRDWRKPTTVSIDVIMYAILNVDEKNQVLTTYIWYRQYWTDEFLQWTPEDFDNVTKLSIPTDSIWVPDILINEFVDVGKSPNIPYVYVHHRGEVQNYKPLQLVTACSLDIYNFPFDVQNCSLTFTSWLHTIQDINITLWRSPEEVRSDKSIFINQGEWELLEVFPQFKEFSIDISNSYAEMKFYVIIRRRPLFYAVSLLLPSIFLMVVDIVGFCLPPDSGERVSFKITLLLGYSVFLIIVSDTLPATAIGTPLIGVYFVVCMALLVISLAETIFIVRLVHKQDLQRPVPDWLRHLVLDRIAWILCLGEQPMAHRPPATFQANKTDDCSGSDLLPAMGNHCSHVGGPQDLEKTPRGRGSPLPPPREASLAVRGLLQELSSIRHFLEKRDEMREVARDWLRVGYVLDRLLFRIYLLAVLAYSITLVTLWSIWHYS

Take `C[C@]12CC[C@@H]3c4ccc(O)cc4CC[C@H]3[C@@H]1C[C@@H](O)[C@@H]2O` [estriol]: at 5-HT3 receptor [1], the IC50 turned out to be 22000 ± 8000 nM.
`C[C@]12CC[C@@H]3c4ccc(O)cc4CC[C@H]3[C@@H]1CCC2=O` [estrone, 3-hydroxyestra-1,3,5(10)-trien-17-one]: the results for the IC50 against 5-HT3 receptor [1] and against 5-HT3 receptor [2] were 1.5 nM and 300 ± 20 nM, respectively.

As a reminder, the IC50 is the concentration at which inhibition is half-maximal.
